From ChEMBL document CHEMBL4387733, “Design, synthesis and biological evaluation of indane derived GPR40 agoPAMs” (Bioorg Med Chem Lett, 2019)
≈ marks a conversion by molar mass, not a printed value. Calls of active or inactive are those of the source. No cut-off for these calls is given here.

What was measured:
Rattus norvegicus [1] = organism: Rattus norvegicus; assay: Inhibition of rat P2Y receptor at 10 uM relative to control
[2] = target: MAP/microtubule affinity-regulating kinase 3 (Homo sapiens) (UniProt P27448); assay: Inhibition of human full-length recombinant MARK3 expressed in insect cells at 10 uM using CHKtide as substrate preincubated for 15 mins followed by substrate addition and measured after 30 mins in presence of [gamma32P]ATP by scintillation counting analysis relative to control
[3] = target: Free fatty acid receptor 1 (Homo sapiens, UniProt O14842); assay: Positive allosteric modulation of recombinant human GPR40 expressed in HEK293 cells assessed as increase in [3H]-myo-inositol phosphate accumulation measured after 60 mins in presence of 100% human serum by microbeta counting method; format: functional, cell-based
[4] = target: Acetylcholinesterase (Homo sapiens) (UniProt P22303); assay: Inhibition of human recombinant full length acetylcholine esterase expressed in HEK293 cells at 10 uM using acetylcholine as substrate preincubated for 15 mins followed by substrate addition measured after 20 mins by spectrophotometric analysis
[5] = target: Cysteinyl leukotriene receptor 2 (Homo sapiens) (UniProt Q9NS75); assay: Displacement of [3H]LTD4 from human full-length recombinant cysteinyl leukotriene type-2 receptor expressed in HEK293 cells at 10 uM measured after 60 mins by scintillation counting method relative to control; format: cell-based
[6] = target: Sodium-dependent serotonin transporter (Homo sapiens) (UniProt P31645); assay: Inhibition of human SERT at 10 uM relative to control
Chain of Sodium-dependent serotonin transporter (Homo sapiens) (P31645 whole entry, looked up): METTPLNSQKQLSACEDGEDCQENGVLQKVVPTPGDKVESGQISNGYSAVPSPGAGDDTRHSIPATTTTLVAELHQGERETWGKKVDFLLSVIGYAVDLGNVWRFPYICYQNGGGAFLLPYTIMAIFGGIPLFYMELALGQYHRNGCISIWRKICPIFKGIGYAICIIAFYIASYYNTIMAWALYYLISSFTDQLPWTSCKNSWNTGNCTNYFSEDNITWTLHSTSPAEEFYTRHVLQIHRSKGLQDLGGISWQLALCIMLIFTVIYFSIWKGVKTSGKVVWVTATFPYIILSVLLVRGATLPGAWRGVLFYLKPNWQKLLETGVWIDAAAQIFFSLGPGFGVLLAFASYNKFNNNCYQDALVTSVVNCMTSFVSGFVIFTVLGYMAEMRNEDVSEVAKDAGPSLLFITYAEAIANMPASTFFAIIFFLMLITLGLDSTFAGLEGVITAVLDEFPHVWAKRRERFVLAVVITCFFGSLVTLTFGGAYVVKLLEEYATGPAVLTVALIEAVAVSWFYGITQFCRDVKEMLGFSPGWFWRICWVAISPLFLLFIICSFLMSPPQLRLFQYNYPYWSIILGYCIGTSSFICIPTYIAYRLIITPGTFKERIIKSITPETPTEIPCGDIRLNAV

[7] = target: Sodium-dependent dopamine transporter (Homo sapiens) (UniProt Q01959); assay: Inhibition of human sodium dependent dopamine transporter at 10 uM relative to control
[8] = target: Sodium-dependent noradrenaline transporter (Homo sapiens) (UniProt P23975); assay: Inhibition of human sodium dependent noradrenaline transporter at 10 uM relative to control
[9] = target: Prostaglandin G/H synthase 1 (Homo sapiens) (UniProt P23219); assay: Inhibition of human recombinant cyclooxygenase COX1 expressed in baculovirus infected Sf9 cells at 10 uM using arachidonic acid as substrate preincubated for 15 mins followed by substrate addition and measured after 3 mins by ampliflu red reagent-based spectrofluorimetric method relative to control
Chain of Prostaglandin G/H synthase 1 (Homo sapiens) (P23219 whole entry): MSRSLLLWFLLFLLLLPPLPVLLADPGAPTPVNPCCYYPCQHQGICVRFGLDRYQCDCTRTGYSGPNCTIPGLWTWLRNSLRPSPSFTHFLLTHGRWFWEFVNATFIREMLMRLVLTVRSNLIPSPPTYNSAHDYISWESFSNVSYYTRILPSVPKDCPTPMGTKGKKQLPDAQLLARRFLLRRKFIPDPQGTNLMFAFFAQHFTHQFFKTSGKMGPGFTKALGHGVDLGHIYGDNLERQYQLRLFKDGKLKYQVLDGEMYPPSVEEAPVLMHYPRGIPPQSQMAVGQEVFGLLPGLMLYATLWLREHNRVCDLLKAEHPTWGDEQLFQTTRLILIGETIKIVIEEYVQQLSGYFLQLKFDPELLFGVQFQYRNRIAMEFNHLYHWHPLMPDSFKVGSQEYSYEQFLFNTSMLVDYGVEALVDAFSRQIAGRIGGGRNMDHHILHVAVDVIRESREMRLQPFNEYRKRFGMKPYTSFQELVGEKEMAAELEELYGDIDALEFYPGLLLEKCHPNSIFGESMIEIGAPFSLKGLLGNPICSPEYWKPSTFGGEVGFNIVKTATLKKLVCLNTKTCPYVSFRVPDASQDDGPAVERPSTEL

[10] = target: Prostaglandin G/H synthase 2 (Homo sapiens) (UniProt P35354); assay: Inhibition of human recombinant cyclooxygenase COX2 expressed in baculovirus infected Sf9 cells at 10 uM using arachidonic acid as substrate preincubated for 15 mins followed by substrate addition and measured after 3 mins by ampliflu red reagent-based spectrofluorimetric method relative to control
Caspase-8 (Homo sapiens) = Caspase-8 (Homo sapiens) (UniProt Q14790); assay: Inhibition of human full-length recombinant caspase 8 expressed in Escherichia coli at 10 uM using Ac-IETD-AMC as substrate preincubated for 15 mins followed by substrate addition and measured after 60 mins by spectrofluorimetric analysis relative to control
Caspase-9 (Homo sapiens) = Caspase-9 (Homo sapiens) (UniProt P55211); assay: Inhibition of human full-length recombinant caspase 9 expressed in Escherichia coli at 10 uM using Ac-LEHD-AFC as substrate preincubated for 15 mins followed by substrate addition and measured after 60 mins by spectrofluorimetric analysis relative to control
[11] = target: Cathepsin G (Homo sapiens) (UniProt P08311); assay: Inhibition of human neutrophil cathepsin G at 10 uM using Suc-Ala-Ala-Pro-Phe-AMC as substrate preincubated for 15 mins followed by substrate addition and measured after 30 mins by spectrofluorimetric analysis relative to control
[12] = target: Mitogen-activated protein kinase 3 (Homo sapiens) (UniProt P27361); assay: Inhibition of human recombinant full-length ERK1 expressed in Escherichia coli at 10 uM using myelin basic protein as substrate preincubated for 30 mins followed by substrate addition and measured after 30 mins in the presence of [gamma32P]ATP by scintillation counting method relative to control
Chain of Mitogen-activated protein kinase 3 (Homo sapiens) (P27361 whole entry): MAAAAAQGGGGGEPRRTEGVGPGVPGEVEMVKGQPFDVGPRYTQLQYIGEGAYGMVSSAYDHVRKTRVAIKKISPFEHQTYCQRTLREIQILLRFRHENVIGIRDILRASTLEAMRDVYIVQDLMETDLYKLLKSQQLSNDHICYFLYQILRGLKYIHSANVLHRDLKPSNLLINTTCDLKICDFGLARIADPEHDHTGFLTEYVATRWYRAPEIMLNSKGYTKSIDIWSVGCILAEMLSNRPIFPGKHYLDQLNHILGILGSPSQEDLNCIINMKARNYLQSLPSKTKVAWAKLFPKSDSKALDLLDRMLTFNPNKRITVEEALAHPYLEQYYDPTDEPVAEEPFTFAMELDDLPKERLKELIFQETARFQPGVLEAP

[13] = target: Alpha-2A adrenergic receptor (Homo sapiens) (UniProt P08913); assay: Inhibition of human adrenergic alpha2A receptor at 10 uM relative to control
Chain of Alpha-2A adrenergic receptor (Homo sapiens) (P08913 whole entry): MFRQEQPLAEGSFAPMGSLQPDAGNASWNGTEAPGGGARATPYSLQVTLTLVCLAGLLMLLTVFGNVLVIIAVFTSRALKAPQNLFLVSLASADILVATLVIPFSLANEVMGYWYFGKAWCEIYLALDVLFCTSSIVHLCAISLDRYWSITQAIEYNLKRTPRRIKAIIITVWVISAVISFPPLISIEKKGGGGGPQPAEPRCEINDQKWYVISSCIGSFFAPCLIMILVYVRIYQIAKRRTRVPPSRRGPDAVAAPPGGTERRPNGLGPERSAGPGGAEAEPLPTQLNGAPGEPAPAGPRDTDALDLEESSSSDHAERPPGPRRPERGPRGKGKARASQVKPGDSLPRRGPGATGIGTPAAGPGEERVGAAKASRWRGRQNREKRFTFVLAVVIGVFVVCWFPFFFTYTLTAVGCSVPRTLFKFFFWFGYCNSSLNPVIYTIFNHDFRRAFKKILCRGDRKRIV

[14] = target: Alpha-2C adrenergic receptor (Homo sapiens) (UniProt P18825); assay: Inhibition of human adrenergic alpha2C receptor at 10 uM relative to control
[15] = target: B1 bradykinin receptor (Homo sapiens) (UniProt P46663); assay: Displacement of [3H]Kallidin(des-Arg10,Leu9) from human recombinant bradykinin B1 receptor expressed in CHOK1 cells at 10 uM after 60 mins by scintillation counting assay relative to control; format: cell-based
[16] = target: D(1A) dopamine receptor (Homo sapiens) (UniProt P21728); assay: Inhibition of human dopamine D1 receptor at 10 uM relative to control
Chain of D(1A) dopamine receptor (Homo sapiens) (P21728 whole entry): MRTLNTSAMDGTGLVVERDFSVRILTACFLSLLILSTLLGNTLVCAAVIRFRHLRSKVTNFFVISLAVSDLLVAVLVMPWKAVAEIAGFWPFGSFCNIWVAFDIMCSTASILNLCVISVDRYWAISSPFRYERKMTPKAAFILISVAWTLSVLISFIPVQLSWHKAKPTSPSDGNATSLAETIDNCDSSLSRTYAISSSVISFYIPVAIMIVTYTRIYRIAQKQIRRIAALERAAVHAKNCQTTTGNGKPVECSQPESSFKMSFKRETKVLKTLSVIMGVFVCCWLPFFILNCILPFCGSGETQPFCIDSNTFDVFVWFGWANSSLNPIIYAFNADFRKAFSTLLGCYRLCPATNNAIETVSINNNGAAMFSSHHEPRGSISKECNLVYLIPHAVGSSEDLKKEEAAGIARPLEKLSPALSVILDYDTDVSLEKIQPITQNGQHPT

[17] = target: D(2) dopamine receptor (Homo sapiens) (UniProt P14416); assay: Inhibition of human dopamine D2s receptor at 10 uM relative to control
Chain of D(2) dopamine receptor (Homo sapiens) (P14416 whole entry): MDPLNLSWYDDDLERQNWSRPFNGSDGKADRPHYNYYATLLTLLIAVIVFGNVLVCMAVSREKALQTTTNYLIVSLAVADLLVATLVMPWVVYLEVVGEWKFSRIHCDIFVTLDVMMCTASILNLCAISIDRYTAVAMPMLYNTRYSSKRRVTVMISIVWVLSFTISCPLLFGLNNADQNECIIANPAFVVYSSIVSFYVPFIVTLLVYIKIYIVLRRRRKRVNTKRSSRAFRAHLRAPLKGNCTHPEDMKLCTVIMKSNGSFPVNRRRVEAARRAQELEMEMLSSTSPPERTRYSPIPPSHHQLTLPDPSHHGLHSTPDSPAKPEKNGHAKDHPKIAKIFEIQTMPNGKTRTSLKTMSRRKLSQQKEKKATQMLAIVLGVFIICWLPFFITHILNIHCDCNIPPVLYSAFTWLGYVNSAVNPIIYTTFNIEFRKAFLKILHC

[18] = target: GABA-A receptor; anion channel (Rattus norvegicus) (UniProt O09028+P15431+P18506+P18508+P19969+P20236+P23574+P23576+P28471+P28473+P30191+P62813+P63079+P63138+Q91ZM7+Q9ES14); assay: Inhibition of rat GABAA receptor at 10 uM relative to control; format: protein-complex assay
[19] = target: Histamine H1 receptor (Homo sapiens) (UniProt P35367); assay: Inhibition of human histamine H1 receptor at 10 uM relative to control
[20] = target: Histamine H2 receptor (Homo sapiens) (UniProt P25021); assay: Inhibition of human histamine H2 receptor at 10 uM relative to control
Chain of Histamine H2 receptor (Homo sapiens) (P25021 whole entry): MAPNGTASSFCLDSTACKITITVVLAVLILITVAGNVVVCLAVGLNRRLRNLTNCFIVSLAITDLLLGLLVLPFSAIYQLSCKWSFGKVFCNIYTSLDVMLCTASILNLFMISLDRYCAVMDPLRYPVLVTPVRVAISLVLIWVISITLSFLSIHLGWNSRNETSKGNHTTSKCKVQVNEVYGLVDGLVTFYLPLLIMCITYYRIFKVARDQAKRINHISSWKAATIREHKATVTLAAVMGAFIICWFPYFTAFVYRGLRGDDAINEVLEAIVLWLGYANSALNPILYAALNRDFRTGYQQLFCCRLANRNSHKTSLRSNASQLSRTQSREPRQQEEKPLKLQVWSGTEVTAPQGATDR

[21] = target: Muscarinic acetylcholine receptor M3 (Homo sapiens) (UniProt P20309); assay: Inhibition of human muscarinic M3 receptor at 10 uM relative to control
[22] = target: Kappa-type opioid receptor (Homo sapiens) (UniProt P41145); assay: Inhibition of human kappa type opioid receptor at 10 uM relative to control
Chain of Kappa-type opioid receptor (Homo sapiens) (P41145 whole entry): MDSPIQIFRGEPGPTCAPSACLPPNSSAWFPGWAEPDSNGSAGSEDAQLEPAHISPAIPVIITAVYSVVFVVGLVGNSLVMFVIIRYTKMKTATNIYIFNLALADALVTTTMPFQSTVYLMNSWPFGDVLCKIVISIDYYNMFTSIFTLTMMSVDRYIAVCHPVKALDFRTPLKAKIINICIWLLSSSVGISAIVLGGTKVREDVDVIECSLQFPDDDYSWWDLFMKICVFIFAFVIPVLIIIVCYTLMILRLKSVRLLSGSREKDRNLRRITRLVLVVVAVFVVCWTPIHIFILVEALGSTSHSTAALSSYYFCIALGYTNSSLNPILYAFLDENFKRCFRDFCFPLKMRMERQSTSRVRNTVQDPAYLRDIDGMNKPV

[23] = target: Mu-type opioid receptor (Homo sapiens) (UniProt P35372); assay: Inhibition of human mu type opioid receptor at 10 uM relative to control
[24] = target: Prostaglandin E2 receptor EP1 subtype (Homo sapiens) (UniProt P34995); assay: Inhibition of human prostanoid EP1 receptor at 10 uM relative to control
[25] = target: Prostaglandin E2 receptor EP3 subtype (Homo sapiens) (UniProt P43115); assay: Inhibition of human prostanoid EP3 receptor at 10 uM relative to control
Chain of Prostaglandin E2 receptor EP3 subtype (Homo sapiens) (P43115 whole entry): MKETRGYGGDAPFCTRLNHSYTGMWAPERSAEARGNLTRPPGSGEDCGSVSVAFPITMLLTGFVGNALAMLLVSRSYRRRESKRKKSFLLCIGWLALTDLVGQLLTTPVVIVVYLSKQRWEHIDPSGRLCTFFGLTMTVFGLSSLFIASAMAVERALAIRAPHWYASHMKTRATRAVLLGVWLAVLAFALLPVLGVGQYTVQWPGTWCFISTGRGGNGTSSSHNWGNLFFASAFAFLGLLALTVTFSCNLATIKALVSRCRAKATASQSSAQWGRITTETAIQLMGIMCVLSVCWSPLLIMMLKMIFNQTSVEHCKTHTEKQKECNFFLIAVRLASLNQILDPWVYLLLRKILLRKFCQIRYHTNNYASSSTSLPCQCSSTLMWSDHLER

Mus musculus = organism: Mus musculus; assay: Glucose lowering effect in GPR40 knockout mouse assessed as increase in GLP-1 level; format: functional, organism-based
[26] = target: 5-hydroxytryptamine receptor 1A (Homo sapiens) (UniProt P08908); assay: Inhibition of human 5HT1A receptor at 10 uM relative to control
[27] = target: 5-hydroxytryptamine receptor 2A (Homo sapiens) (UniProt P28223); assay: Inhibition of human 5-HT2A receptor at 10 uM relative to control
[28] = target: 5-hydroxytryptamine receptor 2B (Homo sapiens) (UniProt P41595); assay: Inhibition of human 5-HT2B receptor at 10 uM relative to control
Chain of 5-hydroxytryptamine receptor 2B (Homo sapiens) (P41595 whole entry): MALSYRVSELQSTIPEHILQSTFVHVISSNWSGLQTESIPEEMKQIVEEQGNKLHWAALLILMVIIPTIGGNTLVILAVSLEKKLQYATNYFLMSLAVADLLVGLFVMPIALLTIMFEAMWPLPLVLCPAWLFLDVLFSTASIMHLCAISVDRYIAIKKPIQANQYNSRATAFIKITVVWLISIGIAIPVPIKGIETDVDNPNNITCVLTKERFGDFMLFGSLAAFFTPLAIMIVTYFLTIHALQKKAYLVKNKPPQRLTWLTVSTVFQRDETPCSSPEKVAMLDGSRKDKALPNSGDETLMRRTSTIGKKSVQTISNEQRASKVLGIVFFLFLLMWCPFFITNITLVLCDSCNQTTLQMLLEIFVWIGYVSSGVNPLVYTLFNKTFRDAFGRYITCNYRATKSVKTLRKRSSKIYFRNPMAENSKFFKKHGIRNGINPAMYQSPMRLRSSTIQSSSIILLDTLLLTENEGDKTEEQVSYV

[29] = target: 5-hydroxytryptamine receptor 2C (Homo sapiens) (UniProt P28335); assay: Inhibition of human 5-HT2C receptor at 10 uM relative to control
Rattus norvegicus [30] = assay: Hypoglycemic activity in Sprague-Dawley rat assessed as reduction in blood glucose AUC at 0.3 mg/kg, po pretreated for 1 hr followed by glucose challenge by OGTT relative to control; format: functional
[31] = Solubility of the compound in FASSIF; format: physicochemical
[32] = target: Histamine H4 receptor (Homo sapiens) (UniProt Q9H3N8); assay: Inhibition of human histamine H4 receptor at 10 uM relative to control
Chain of Histamine H4 receptor (Homo sapiens) (Q9H3N8 whole entry): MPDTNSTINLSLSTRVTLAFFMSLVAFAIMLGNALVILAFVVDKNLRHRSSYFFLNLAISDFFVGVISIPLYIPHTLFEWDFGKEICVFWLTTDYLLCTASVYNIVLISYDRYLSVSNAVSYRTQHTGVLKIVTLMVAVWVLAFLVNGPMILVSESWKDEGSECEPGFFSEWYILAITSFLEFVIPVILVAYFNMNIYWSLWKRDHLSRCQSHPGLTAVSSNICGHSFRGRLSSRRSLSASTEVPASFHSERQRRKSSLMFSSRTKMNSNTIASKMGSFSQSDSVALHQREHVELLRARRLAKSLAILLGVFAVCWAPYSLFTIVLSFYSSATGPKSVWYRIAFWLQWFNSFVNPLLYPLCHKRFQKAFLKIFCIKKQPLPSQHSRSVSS

With `COc1ccc(F)c(-c2ccc(COc3cccc([C@@H](CC(=O)O)C4CC4)c3)cc2C2=CCCC2(C)C)c1` as the compound, how does the inhibition (Rattus norvegicus [1]) read?
The inhibition was 80%.

And the inhibition [2]?
The inhibition was 81%.

And the fEC50 [3]?
Its fEC50 is 0.06 nM.

And the inhibition [4]?
Its inhibition is 52%.

What about the inhibition [5] of the same compound?
Its inhibition is 61%.

And the inhibition [6]?
The inhibition was 70%.

What about the inhibition [7] of the same compound?
Its inhibition is 97%.

And the inhibition [8]?
The inhibition was 95%.

What about the inhibition [9] of the same compound?
The inhibition was 67%.

What about the inhibition [10] of the same compound?
Its inhibition is 77%.

What about the inhibition (Caspase-8 (Homo sapiens)) of the same compound?
Its inhibition is 65%.

And the inhibition (Caspase-9 (Homo sapiens))?
The inhibition was 89%.

What about the inhibition [11] of the same compound?
Its inhibition is 53%.

What about the inhibition [12] of the same compound?
Its inhibition is 96%.

And the inhibition [13]?
The inhibition was 99%.

What about the inhibition [14] of the same compound?
The inhibition was 99%.

And the inhibition [15]?
The inhibition was 63%.

What about the inhibition [16] of the same compound?
Its inhibition is 78%.

And the inhibition [17]?
The inhibition was 66%.

And the inhibition [18]?
The inhibition was 60%.

And the inhibition [19]?
Its inhibition is 97%.

What about the inhibition [20] of the same compound?
The inhibition was 66%.

What about the inhibition [21] of the same compound?
Its inhibition is 60%.

And the inhibition [22]?
The inhibition was 97%.

What about the inhibition [23] of the same compound?
The inhibition was 99%.

What about the inhibition [24] of the same compound?
Its inhibition is 95%.

What about the inhibition [25] of the same compound?
Its inhibition is 77%.

What about the Activity (Mus musculus) of the same compound?
The Activity was “Active”.

What about the inhibition [26] of the same compound?
The inhibition was 91%.

And the inhibition [27]?
The inhibition was 89%.

And the inhibition [28]?
The inhibition was 88%.

What about the inhibition [29] of the same compound?
The inhibition was 94%.

And the Activity (Rattus norvegicus [30])?
The Activity was “Active”.

What about the solubility [31] of the same compound?
Its solubility is 166 µM (≈ 85.4 µg/mL).

What about the inhibition [32] of the same compound?
The inhibition was 82%.
